Measured values: patent publication US4450269A, “Mono-5-substituted-3-chloro-4H-1,2,6-thiadiazin-4-one antifungal agents” (FMC Corporation, priority 1980, dated 1984)

What was measured:
Experiment in all cases: Spore germination test
Type in all cases: cell-based
Uromyces phaseoli = conditions: UP, 48 hours
Summary of the method: (§1)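 Compound in acetone was mixed into water agar at final 40, 10, 2.5 and 1 ppm and poured into quadrant dishes. Quadrants received spore suspension, while Erysiphe polygoni and Uromyces phaseoli spores were brushed on from infected leaves. After 48 h at 24 °C, the percentage of germinated spores was converted to a germination rating.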

Botrytis cinerea = conditions: BC, 48 hours
Summary of the method: as §1

Erysiphe polygoni = conditions: EP, 48 hours
Summary of the method: as §1

| Compound | Spore Germination Rating (Uromyces phaseoli; 1.0 ppm) | Spore Germination Rating (Uromyces phaseoli; 2.5 ppm) | Spore Germination Rating (Uromyces phaseoli; 10 ppm) | Spore Germination Rating (Uromyces phaseoli; 40 ppm) | Spore Germination Rating (Botrytis cinerea; 1.0 ppm) | Spore Germination Rating (Botrytis cinerea; 2.5 ppm) | Spore Germination Rating (Botrytis cinerea; 10 ppm) | Spore Germination Rating (Botrytis cinerea; 40 ppm) | Spore Germination Rating (Erysiphe polygoni; 1.0 ppm) | Spore Germination Rating (Erysiphe polygoni; 2.5 ppm) | Spore Germination Rating (Erysiphe polygoni; 10 ppm) | Spore Germination Rating (Erysiphe polygoni; 40 ppm) |
| --- | --- | --- | --- | --- | --- | --- | --- | --- | --- | --- | --- | --- |
| O=c1c(Cl)nsnc1Oc1c(Cl)c(Cl)c(Cl)c(Cl)c1Cl [Compound 31, 3-chloro-5-(pentachlorophenoxy)-4H--1,2,6-thiadiazine-4-one] | 0 (0-10) | 0 (0-10) | 0 (0-10) | 0 (0-10) | 1 (10-40) | 1 (10-40) | 1 (10-40) | 0 (0-10) | 0 (0-10) | 0 (0-10) | 1 (10-40) | 0 (0-10) |
| O=c1c(Cl)nsnc1Oc1ccc(Cl)cc1 [Compound 12, 3-chloro-5-(4-chlorophenoxy)-4H--1,2,6-thiadiazin-4-one] | 1 (10-40) | 1 (10-40) | 0 (0-10) | 0 (0-10) | 0 (0-10) | 2 (40-60) | 0 (0-10) | 0 (0-10) | 4 (80-100) | 4 (80-100) | 2 (40-60) | 0 (0-10) |
| O=c1c(Cl)nsnc1Oc1cccc(Cl)c1Cl [Compound 19, 3-chloro-5-(2,3-dichlorophenoxy)-4H--1,2,6-thiadiazin-4-one] | 0 (0-10) | 0 (0-10) | 0 (0-10) | 0 (0-10) | 4 (80-100) | 1 (10-40) | 0 (0-10) | 0 (0-10) | 3 (60-80) | 1 (10-40) | 0 (0-10) | 0 (0-10) |
| CSc1ccc(Oc2nsnc(Cl)c2=O)cc1 [Compound 39, 3-chloro-5-[(4-methylthio)phenoxy]-4H-1,2,6,-thiadiazin-4-one] | 2 (40-60) | 2 (40-60) | 2 (40-60) | 0 (0-10) | 4 (80-100) | 4 (80-100) | 4 (80-100) | 3 (60-80) | 2 (40-60) | 1 (10-40) | 2 (40-60) | 0 (0-10) |
| O=c1c(Cl)nsnc1Oc1c(Cl)cc(Cl)cc1Cl [Compound 30, 3-chloro-5-(2,4,6-trichlorophenoxy)-4H--1,2,6-thiadiazin-4-one] | 0 (0-10) | 0 (0-10) | 0 (0-10) | 0 (0-10) | 0 (0-10) | 0 (0-10) | 0 (0-10) | 0 (0-10) | 1 (10-40) | 0 (0-10) | 0 (0-10) | 0 (0-10) |
| CC(=O)Nc1ccccc1Oc1nsnc(Cl)c1=O [Compound 43, 3-[(2-acetylamino)-phenoxy]-5-chloro-4H--1,2,6-thiadiazin-4-one] | 4 (80-100) | 4 (80-100) | 4 (80-100) | 4 (80-100) | 4 (80-100) | 4 (80-100) | 4 (80-100) | 3 (60-80) | 4 (80-100) | 4 (80-100) | 4 (80-100) | 1 (10-40) |
| CNC(=O)Nc1ccc(Oc2nsnc(Cl)c2=O)cc1 [Compound 28, 3-chloro-5-[4-(3-methylureido)-phenoxy]-4H--1,2,6-thiadiazin-4-one] | 4 (80-100) | 2 (40-60) | 2 (40-60) | 2 (40-60) | 4 (80-100) | 1 (10-40) | 0 (0-10) | 0 (0-10) | 4 (80-100) | 4 (80-100) | 4 (80-100) | 4 (80-100) |
| CC(=O)c1ccccc1Oc1nsnc(Cl)c1=O [Compound 49, 3-(2-acetylphenoxy)-5-chloro-4H--1,2,6-thiadiazin-4-one] | 4 (80-100) | 1 (10-40) | 0 (0-10) | 0 (0-10) | 1 (10-40) | 1 (10-40) | 0 (0-10) | 0 (0-10) | 4 (80-100) | 4 (80-100) | 2 (40-60) | 2 (40-60) |
| COc1ccc(Cl)c(Oc2nsnc(Cl)c2=O)c1 [Compound 51, 3-chloro-5-[(2-chloro-5-methoxy)phenoxy]-4H--1,2,6-thiadiazin-4-one] | 0 (0-10) | 0 (0-10) | 0 (0-10) | 0 (0-10) | 4 (80-100) | 3 (60-80) | 0 (0-10) | 0 (0-10) | 4 (80-100) | 4 (80-100) | 0 (0-10) | 0 (0-10) |
